# Laboratory results as given in patent publication US20130303509A1, “NAMPT INHIBITORS” (AbbVie Inc., priority 2012, published 2013).
# System: PC3 cells
# Experiment: NAMPT Cell Proliferation Assay
# Format: cell-based
# Settings: Homo sapiens, PC-3, 120 h, 5 days incubation, cell viability by Cell Titer Glo
# How it was run: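 Seeded at 500 cells/well in RPMI with 10% heat-inactivated FBS and left to attach overnight at 37° C, 5% CO2. Compounds were added as 10-fold dilutions […] for 5 days, then viability was read by CellTiter-Glo. IC50s came from sigmoidal fits of percent inhibition.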
row,SMILES,IC50 [nM]
1,"COCCn1nc(C2CC2)cc1-c1ccc(NC(=O)C2CN(c3cccnn3)C2)cc1 [Example 807, N-{4-[3-cyclopropyl-1-(2-methoxyethyl)-1H-pyrazol-5-yl]phenyl}-1-(pyridazin-3-yl)azetidine-3-carboxamide]",4.15
2,"O=C(Nc1ccc(C2CCN(C(=O)c3ccccc3F)CC2)cc1)[C@@H]1CCN(c2cccnn2)C1 [Example 794, (3R)—N-{4-[1-(2-fluorobenzoyl)piperidin-4-yl]phenyl}-1-(pyridazin-3-yl)pyrrolidine-3-carboxamide]",196
3,"COc1ccc(C(=O)N2CCC(c3ccc(NC(=O)C4CN(c5cccnn5)C4)cc3)CC2)cc1 [Example 347, N-{4-[1-(4-methoxybenzoyl)piperidin-4-yl]phenyl}-1-(pyridazin-3-yl)azetidine-3-carboxamide]",8.06
4,"O=C(Nc1ccc(OC2CCN(C(=O)CN3CCOCC3)CC2)cc1)C1CN(c2cccnc2)C1 [Example 60, N-(4-{[1-(morpholin-4-ylacetyl)piperidin-4-yl]oxy}phenyl)-1-(pyridin-3-yl)azetidine-3-carboxamide]",5.07
5,"CCCCCCC(=O)N1CCC(c2ccc(NC(=O)[C@H]3CCN(c4cccnn4)C3)cc2)CC1 [Example 673, (3S)-N-[4-(1-heptanoylpiperidin-4-yl)phenyl]-1-(pyridazin-3-yl)pyrrolidine-3-carboxamide]",11.6
6,"Cc1ccc(C(=O)N2CCC(c3ccc(NC(=O)C4CN(c5cccnn5)C4)cc3)CC2)cc1 [Example 441, N-{4-[1-(4-methylbenzoyl)piperidin-4-yl]phenyl}-1-(pyridazin-3-yl)azetidine-3-carboxamide]",6.83
7,"CC(C)(C)CC(=O)N1CCC(c2ccc(NC(=O)C3CN(c4cccnn4)C3)cc2)CC1 [Example 327, N-{4-[1-(3,3-dimethylbutanoyl)piperidin-4-yl]phenyl}-1-(pyridazin-3-yl)azetidine-3-carboxamide]",1.23
8,"O=C(Nc1ccc(OC2CCN(C(=O)c3ccc(F)cc3F)CC2)cc1)C1CN(c2cccnn2)C1 [Example 229, N-(4-{[1-(2,4-difluorobenzoyl)piperidin-4-yl]oxy}phenyl)-1-(pyridazin-3-yl)azetidine-3-carboxamide]",6.46
9,"O=C(Nc1ccc(OC2CCN(C(=O)c3ccc(F)cc3)CC2)cc1)C1CN(c2cccnn2)C1 [Example 230, N-(4-{[1-(4-fluorobenzoyl)piperidin-4-yl]oxy}phenyl)-1-(pyridazin-3-yl)azetidine-3-carboxamide]",9.05
10,"O=C(Nc1ccc(OC2CN(C(=O)c3ccc(C(F)(F)F)cc3)C2)cc1)C1CN(c2ccnnc2)C1 [Example 205, 1-(pyridazin-4-yl)-N-[4-({1-[4-(trifluoromethyl)benzoyl]azetidin-3-yl}oxy)phenyl]azetidine-3-carboxamide]",38.7
11,"O=C(Nc1ccc(C2CCN(C(=O)Cc3cccc4ccccc34)CC2)cc1)[C@H]1CCN(c2cccnn2)C1 [Example 641, (3S)-N-{4-[1-(naphthalen-1-ylacetyl)piperidin-4-yl]phenyl}-1-(pyridazin-3-yl)pyrrolidine-3-carboxamide]",72.6
12,"O=C(Nc1ccc(C2CCN(C(=O)c3ccc(Cl)c(Cl)c3)CC2)cc1)C1CN(c2cccnn2)C1 [Example 364, N-{4-[1-(3,4-dichlorobenzoyl)piperidin-4-yl]phenyl}-1-(pyridazin-3-yl)azetidine-3-carboxamide]",8.63
13,"O=C(Nc1ccc(OC2CCN(C(=O)c3nccs3)CC2)cc1)C1CN(c2cccnc2)C1 [Example 68, 1-(pyridin-3-yl)-N-(4-{[1-(1,3-thiazol-2-ylcarbonyl)piperidin-4-yl]oxy}phenyl)azetidine-3-carboxamide]",3.54
14,"O=C(Nc1ccc(S(=O)(=O)C2CCN(C(=O)C3CCCC3)CC2)cc1)C1CN(c2cccnn2)C1 [Example 599, N-(4-{[1-(cyclopentylcarbonyl)piperidin-4-yl]sulfonyl}phenyl)-1-(pyridazin-3-yl)azetidine-3-carboxamide]",79.7
15,"O=C(Nc1ccc(C2CCN(C(=O)c3ccccc3F)CC2)cc1F)C1CN(c2ccnnc2)C1 [Example 868, N-{2-fluoro-4-[1-(2-fluorobenzoyl)piperidin-4-yl]phenyl}-1-(pyridazin-4-yl)azetidine-3-carboxamide]",2.29
16,"CC(C)C(C)C(=O)N1CCC(c2ccc(NC(=O)[C@H]3CCN(c4cccnn4)C3)cc2)CC1 (stereo partly drawn) [Example 680, (3S)-N-{4-[1-(2,3-dimethylbutanoyl)piperidin-4-yl]phenyl}-1-(pyridazin-3-yl)pyrrolidine-3-carboxamide]",3.55
17,"O=C(Nc1ccc(C2CCN(C(=O)CCN3CCOCC3)CC2)cc1)C1CN(c2cccnc2)C1 [Example 124, N-(4-{1-[3-(morpholin-4-yl)propanoyl]piperidin-4-yl}phenyl)-1-(pyridin-3-yl)azetidine-3-carboxamide]",1.44
18,"O=C(Nc1ccc(OC2CCN(CCC3CC3)CC2)cc1)C1CN(c2cccnc2)C1 [Example 82, N-(4-{[1-(2-cyclopropylethyl)piperidin-4-yl]oxy}phenyl)-1-(pyridin-3-yl)azetidine-3-carboxamide]",9.55

row,SMILES,IC50 [nM]
1,"CCC(C)(C)CN1CCC(Oc2ccc(NC(=O)C3CN(c4cccnc4)C3)cc2)CC1 [Example 84, N-(4-{[1-(2,2-dimethylbutyl)piperidin-4-yl]oxy}phenyl)-1-(pyridin-3-yl)azetidine-3-carboxamide]",38.9
2,"O=C(Nc1ccc(C2CCN(C(=O)c3ccc(C(F)(F)F)cc3)CC2)cc1)C1CN(c2cccnn2)C1 [Example 355, 1-(pyridazin-3-yl)-N-(4-{1-[4-(trifluoromethyl)benzoyl]piperidin-4-yl}phenyl)azetidine-3-carboxamide]",9.79
3,"CC(=O)N1CCC(c2ccc(NC(=O)C3CN(c4cccnn4)C3)cc2)CC1 [Example 316, N-[4-(1-acetylpiperidin-4-yl)phenyl]-1-(pyridazin-3-yl)azetidine-3-carboxamide]",3.12
4,"CCOCCC(=O)N1CCC(c2ccc(NC(=O)C3CN(c4cccnc4C)C3)cc2)CC1 [Example 175, N-{4-[1-(3-ethoxypropanoyl)piperidin-4-yl]phenyl}-1-(2-methylpyridin-3-yl)azetidine-3-carboxamide]",683
5,"O=C(Nc1ccc(O[C@@H]2CCN(C(=O)c3nccs3)C2)cc1)C1CN(c2cccnn2)C1 [Example 484, 1-(pyridazin-3-yl)-N-(4-{[(3R)-1-(1,3-thiazol-2-ylcarbonyl)pyrrolidin-3-yl]oxy}phenyl)azetidine-3-carboxamide]",0.56
6,"O=C(Nc1ccc(OC2CCN(C(=O)[C@@H]3CCCO3)CC2)cc1)[C@H]1CCN(c2cccnc2)C1 [Example 13, (3S)-1-(pyridin-3-yl)-N-[4-({1-[(2S)-tetrahydrofuran-2-ylcarbonyl]piperidin-4-yl}oxy)phenyl]pyrrolidine-3-carboxamide]",79.1
7,"O=C(Nc1ccc(O[C@@H]2CCN(C(=O)Cc3ccc(F)cc3)C2)cc1)C1CN(c2cccnn2)C1 [Example 491, N-[4-({(3R)-1-[(4-fluorophenyl)acetyl]pyrrolidin-3-yl}oxy)phenyl]-1-(pyridazin-3-yl)azetidine-3-carboxamide]",8.45
8,"O=C(Nc1ccc(OC2CCN(C(=O)c3cccs3)CC2)cc1)C1CN(c2cccnc2)C1 [Example 61, 1-(pyridin-3-yl)-N-(4-{[1-(thiophen-2-ylcarbonyl)piperidin-4-yl]oxy}phenyl)azetidine-3-carboxamide]",3.52
9,"O=C(Nc1ccc(C2CCN(C(=O)c3cccs3)CC2)cc1)[C@H]1CCN(c2cccnn2)C1 [Example 731, (3S)-1-(pyridazin-3-yl)-N-{4-[1-(thiophen-2-ylcarbonyl)piperidin-4-yl]phenyl}pyrrolidine-3-carboxamide]",0.5
10,"COc1cccc(C(=O)N2CCC(c3ccc(NC(=O)[C@H]4CCN(c5cccnn5)C4)cc3)CC2)c1 [Example 720, (3S)-N-{4-[1-(3-methoxybenzoyl)piperidin-4-yl]phenyl}-1-(pyridazin-3-yl)pyrrolidine-3-carboxamide]",8.57
11,"CC(C)C(=O)N1C2CCC1CC(c1ccc(NC(=O)C3CN(c4cccnn4)C3)cc1)C2 (centres unmarked) [Example 840, N-{4-[8-(2-methylpropanoyl)-8-azabicyclo[3.2.1]oct-3-yl]phenyl}-1-(pyridazin-3-yl)azetidine-3-carboxamide]",2.8
12,"CC(C)(C)C(=O)N1CCC(c2ccc(NC(=O)C3CN(c4ccnnc4)C3)cc2)CC1 [Example 559, N-{4-[1-(2,2-dimethylpropanoyl)piperidin-4-yl]phenyl}-1-(pyridazin-4-yl)azetidine-3-carboxamide]",1.33
13,"O=C(Nc1ccc(C2CCN(CC3CCCCC3)CC2)cc1)C1CN(c2cccnc2)C1 [Example 86, N-{4-[1-(cyclohexylmethyl)piperidin-4-yl]phenyl}-1-(pyridin-3-yl)azetidine-3-carboxamide]",69.7
14,"COCC(=O)N1CCC(c2ccc(NC(=O)[C@H]3CCN(c4cccnn4)C3)cc2)CC1 [Example 735, (3S)-N-{4-[1-(methoxyacetyl)piperidin-4-yl]phenyl}-1-(pyridazin-3-yl)pyrrolidine-3-carboxamide]",68.9
15,"O=C(Nc1ccc(S(=O)(=O)C2CCN(C(=O)c3cccc(Cl)c3)CC2)cc1)C1CN(c2cccnn2)C1 [Example 564, N-(4-{[1-(3-chlorobenzoyl)piperidin-4-yl]sulfonyl}phenyl)-1-(pyridazin-3-yl)azetidine-3-carboxamide]",79.2
16,"O=C(Nc1ccc(OC2CCN(C(=O)c3nccs3)CC2)cc1)C1CN(c2ccnnc2)C1 [Example 283, 1-(pyridazin-4-yl)-N-(4-{[1-(1,3-thiazol-2-ylcarbonyl)piperidin-4-yl]oxy}phenyl)azetidine-3-carboxamide]",72.5
17,"O=C(Nc1ccc(-c2cnn(CCN3CCNCC3)c2)cc1)C1CN(c2cccnn2)C1 [Example 750, N-(4-{1-[2-(piperazin-1-yl)ethyl]-1H-pyrazol-4-yl}phenyl)-1-(pyridazin-3-yl)azetidine-3-carboxamide]",226
